The text below walks through data of paper PMC12068008 (International Journal of Molecular Sciences, 2024).

For one data set, the system named is MRC-5 cells. The data set can be described thus: SRB assay, MRC-5 cells. The format is cell-based. The conditions noted are these: Homo sapiens, MRC5; 72 h after treatment, SRB; read-out: IC50 MRC. Here is the method: Two human breast cancer cell lines, MDA-MB-231 (HTB-26) and MDA-MB-468 (HTB-132), human cervical cancer cell line HeLa (CCL-2), and MRC-5 (CCL-171) fibroblasts were purchased from the American Type Culture Collection (ATCC, Manassas, VA, USA). All cell lines were cultured in Dulbecco’s Modified Eagle’s Medium (DMEM) with 4500 mg/L glucose and L-glutamine (Capricorn Scientific, Ebsdorfergrund, Germany), supplemented with 10% foetal bovine serum (PAN-Biotech, Aidenbach, Germany), 10,000 U/mL penicillin, and 10 mg/mL streptomycin solution (Capricorn Scientific) under standard conditions at 37 °C in a humidified 5% CO2 atmosphere (ESCO, Lifesciences Group, Singapore).
Cells were seeded on a 96-well plate (Thermo Fisher Scientific, Waltham, MA, USA) at 2 × 10^3 cells per well in DMEM medium. For the analysis of the concentration- and time-dependent effect of the analysed compounds, cell monolayers were treated 24 h after seeding with concentrations 1 × 10^−6, 1 × 10^−5, and 1 × 10^−4 M for 24, 48, or 72 h. Cell viability was detected using sulforhodamine B (SRB) assay, based on the staining of cellular proteins. The assay was performed according to the procedure described by Skehan et al.. The cells were fixed with 10% trichloroacetic acid (TCA, CARLO ERBA Reagents GmbH, Emmendingen, Germany) for 1 h at 4 °C, washed with water, and stained for 15 min with 0.4% SRB (Sigma-Aldrich Chemie GmbH, Steinheim, Germany) in 1% acetic acid. The unbound SRB dye was rinsed with 1% acetic acid, while the protein-bound dye was extracted with a 10 mM Tris base (Sigma-Aldrich). The absorbance was measured at 550 nm with a reference wavelength of 690 nm in a microplate reader (Wallac, VICTOR2 1420 Multilabel counter, PerkinElmer, Turku, Finland). The results were expressed as a percentage of the control, where the cell growth of the control is set to 100%. […] The selectivity index (SI) was determined according to the following formula:(2) SI=IC50 for fibroblast cell line/IC50 for tumour cell line […]
A general note: In SRB staining, fixed cells bind dye roughly in proportion to their protein.

A further data set can be described thus: physchem. To be noted: n-octanol/deionized water, shake flask, 25 °C, 1 × 10^−4 M, read-out: logP, experimentally obtained. The format is physicochemical. The procedure:
To measure the lipophilicity (expressed as the partition coefficient) of the synthesized compounds and their constituents, using a “shake-flask” method, a two-phase system composed of n-octanol and deionized water was used. The stock solutions of the compounds were diluted with water to the concentration of 1 × 10^−4 M, and this solution was used for further investigation. […] The concentration of the compounds was calculated from their extinction coefficient at 260 nm that was previously determined.

The target of a further data set is eqBuChE (Equus caballus, UniProt P81908). The data set can be described thus: BuChE inhibition (Ellman's procedure). The conditions noted are these: 37 °C; for IC50: read-out: IC50 BChE; for inhibition at 100 µM: at 1 × 10^−4 M, read-out: Percentage Inhibition BuChE. The format is biochemical. The procedure:
The abilities of compounds to inhibit AChE and BuChE activity were determined following Ellman’s procedure, with AChI and BuChI as the enzyme substrate, respectively, and DTNB as a chromogenic reagent. AChE’s and BuChE’s working solutions were prepared at 20 mM TRIS and deionized water, respectively. AChI and BuChI solutions were prepared in deionized water. A 0.01 M DTNB solution was prepared with 0.1 M phosphate buffer (pH 7) containing 0.15% (w/v) sodium bicarbonate. Stock solutions (10 mM) of investigated compounds were prepared daily by dissolving solid compounds in DMSO. The reaction mixture containing phosphate buffer, DTNB, enzyme, and compound was preincubated 30 min at 37 °C. After the preincubation time, the enzyme reaction was initiated by adding appropriate substrate and left to incubate for 6 min. After incubation, 0.1 M SDS was added to stop the reaction. Absorbance measurements were performed using a UV/Vis spectrophotometer (Lambda 35, Perkin Elmer), measuring absorbance at 412 nm. A blank assay, containing all components except the enzyme, was used to account for non-enzyme reactions. The control solution contained all components except the inhibitor. All experiments were conducted in triplicate, and the results are expressed as the mean percentage enzyme activity compared to the control value. IC50 values were determined graphically using Origin 9 Microsoft Windows.

Data set [1] in a line: Metal-chelating assay, binding stoichiometry (molar ratio method), Cu2+. The data set is classed as physicochemical. To be noted: ethanol, 30 min, compound 5 × 10^−5 M, one ion coordinates with two molecules. The procedure:
Binding stoichiometry was determined using the molar ratio method, with increasing concentrations of metal ions (from 0 to 1.5 × 10^−4 M) (Figures S1 and S2). Absorption spectra were collected 30 min after mixing. The change in absorption at the wavelength of maximum absorbance for the formed complex was plotted against the metal ion (M^2+ = Cu^2+, Zn^2+, and Fe^2+) to compound ratio (cM^2+/ccompound) and is presented in Figure 3. This graph allows the determination of the binding ratio between the newly synthesized compounds and metal ions. […] In contrast, the results for Fe^2+ indicate that only one Fe^2+ ion can bind to both compounds.
The metal-chelating ability of synthesized compounds in ethanol was assessed using UV/Vis spectrophotometer (Lambda 35, Perkin Elmer) recording spectra over a wavelength range of 230–600 nm in a 1 cm quartz cell. The mixture of compound at 5 × 10^−5 M of final concentration and metal ions at 1 × 10^−4 M of final concentration was incubated for 30 min at room temperature. The tested temperature was 25 °C. […]
The binding stoichiometry was assessed by adding increasing concentrations of metal ions (0–1.5 × 10^−4 M) to a fixed concentration of compound (5 × 10^−5 M) and incubating the mixture for 30 min at room temperature. The spectra were then measured as described above, and the ligand-to-metal chelation ratio in the complex was calculated.

Structures are written as SMILES.

Sequence of eqBuChE (P81908 whole entry): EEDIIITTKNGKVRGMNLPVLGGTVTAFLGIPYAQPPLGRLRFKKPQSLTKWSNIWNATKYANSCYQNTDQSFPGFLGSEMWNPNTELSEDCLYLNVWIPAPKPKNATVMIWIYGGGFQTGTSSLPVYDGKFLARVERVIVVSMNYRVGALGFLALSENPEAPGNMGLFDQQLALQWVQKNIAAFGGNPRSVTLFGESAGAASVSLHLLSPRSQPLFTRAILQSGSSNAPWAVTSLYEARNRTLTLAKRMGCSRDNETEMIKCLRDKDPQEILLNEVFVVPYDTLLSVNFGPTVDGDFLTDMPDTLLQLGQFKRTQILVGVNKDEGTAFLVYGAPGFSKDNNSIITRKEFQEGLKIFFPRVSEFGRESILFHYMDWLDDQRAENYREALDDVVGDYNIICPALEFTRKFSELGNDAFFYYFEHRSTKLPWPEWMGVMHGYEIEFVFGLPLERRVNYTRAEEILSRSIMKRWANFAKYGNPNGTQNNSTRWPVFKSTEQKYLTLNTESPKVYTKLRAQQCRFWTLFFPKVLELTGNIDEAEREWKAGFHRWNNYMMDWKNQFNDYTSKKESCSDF

What is called IC50 is the concentration needed to halve the response being measured. By logP is commonly meant the decadic logarithm of the partition coefficient of the neutral form, usually between octanol and water. One may read the inhibition as how much of the control response was suppressed. For the molecule `O=c1c(O)c(-c2ccc(O)c(O)c2)oc2c(CN3CCc4ccccc4C3)c(O)cc(O)c12` [Compound 2a], the concentration for half-maximal inhibition (IC50) in the data set on MRC-5 cells is 55.7 ± 2.78 µM. For the same molecule, in “physchem”, the logP at 30 min turned out to be 3.07. Further, on eqBuChE, the IC50 turned out to be 16.9 µM and the inhibition at 100 µM turned out to be 70%. The “binding stoichiometry Cu^2+” value in data set [1] stood at 2.
The matching figures for `COc1cc2c(cc1OC)CN(Cc1c(O)cc(O)c3c(=O)c(O)c(-c4ccc(O)c(O)c4)oc13)CC2` [Compound 2b]: 16.6 ± 0.83 µM, 2.47, 41.1 µM, 67.6% and 2.
